Reference: patent US7323469B2, “7H-pyrrolo[2,3-d]pyrimidine derivatives” (Novartis AG, priority 2001, dated 2008)

Experiments:
ErbB-2 (HER-2) = ErbB-2 (HER-2) (Homo sapiens, UniProt P04626); assay: Inhibition of ErbB-2 tyrosine kinase activity; assay type: biochemical
Description: The inhibitory activity (IC50) is approximately in the range of 0.001 to 0.5 μM. The inhibition of ErbB-2 tyrosine kinase (HER-2) can be determined, for example, analogously to the method used for EGF-R protein tyrosine kinase [see C. House et al., Europ. J. Biochem. 140, 363-367 (1984)]. The ErbB-2 kinase can be isolated, and its activity determined, by means of protocols known per se, for example in accordance with T. Akiyama et al., Science 232, 1644 (1986).
(§1) Inhibition of the Tyrosine Kinase Activity of EGF-R (HER-1), ErbB-2 (HER-2) and VEGF Receptor (KDR)
(§2) The inhibition tests are carried out as described above.

VEGF Receptor (KDR) = VEGF Receptor (KDR) (Homo sapiens, UniProt P35968); assay: Inhibition of KDR tyrosine kinase activity; assay type: biochemical
Description: The compounds of the present invention are therefore very effective dual inhibitors of EGF- and VEGF-receptor family members. For inhibition of KDR and Flt-1 and inhibition of growth factor-induced proliferation of HUVECS see J. Wood et al., Cancer Res. 60, 2178-2189 (2000). The compounds of formula I inhibit e.g. the KDR tyrosine kinase activity with an IC50 of from about 1 nM to about 1 μM, especially from about 5 nM to about 0.5 μM.
as §1, §2

EGF-R (HER-1) = molecular target: T1, EGF-R (HER-1) (Homo sapiens, UniProt P00533); assay: Inhibition of EGF-R tyrosine kinase activity (recombinant intracellular domain, EGF-R ICD); assay type: biochemical
T1 construct: using the recombinant intracellular domain of the EGF-receptor [EGF-R ICD
Description: J. Biochem. 207, 265-275 (1992)].
as §1, §2

Chain of ErbB-2 (HER-2) (P04626 23-1255): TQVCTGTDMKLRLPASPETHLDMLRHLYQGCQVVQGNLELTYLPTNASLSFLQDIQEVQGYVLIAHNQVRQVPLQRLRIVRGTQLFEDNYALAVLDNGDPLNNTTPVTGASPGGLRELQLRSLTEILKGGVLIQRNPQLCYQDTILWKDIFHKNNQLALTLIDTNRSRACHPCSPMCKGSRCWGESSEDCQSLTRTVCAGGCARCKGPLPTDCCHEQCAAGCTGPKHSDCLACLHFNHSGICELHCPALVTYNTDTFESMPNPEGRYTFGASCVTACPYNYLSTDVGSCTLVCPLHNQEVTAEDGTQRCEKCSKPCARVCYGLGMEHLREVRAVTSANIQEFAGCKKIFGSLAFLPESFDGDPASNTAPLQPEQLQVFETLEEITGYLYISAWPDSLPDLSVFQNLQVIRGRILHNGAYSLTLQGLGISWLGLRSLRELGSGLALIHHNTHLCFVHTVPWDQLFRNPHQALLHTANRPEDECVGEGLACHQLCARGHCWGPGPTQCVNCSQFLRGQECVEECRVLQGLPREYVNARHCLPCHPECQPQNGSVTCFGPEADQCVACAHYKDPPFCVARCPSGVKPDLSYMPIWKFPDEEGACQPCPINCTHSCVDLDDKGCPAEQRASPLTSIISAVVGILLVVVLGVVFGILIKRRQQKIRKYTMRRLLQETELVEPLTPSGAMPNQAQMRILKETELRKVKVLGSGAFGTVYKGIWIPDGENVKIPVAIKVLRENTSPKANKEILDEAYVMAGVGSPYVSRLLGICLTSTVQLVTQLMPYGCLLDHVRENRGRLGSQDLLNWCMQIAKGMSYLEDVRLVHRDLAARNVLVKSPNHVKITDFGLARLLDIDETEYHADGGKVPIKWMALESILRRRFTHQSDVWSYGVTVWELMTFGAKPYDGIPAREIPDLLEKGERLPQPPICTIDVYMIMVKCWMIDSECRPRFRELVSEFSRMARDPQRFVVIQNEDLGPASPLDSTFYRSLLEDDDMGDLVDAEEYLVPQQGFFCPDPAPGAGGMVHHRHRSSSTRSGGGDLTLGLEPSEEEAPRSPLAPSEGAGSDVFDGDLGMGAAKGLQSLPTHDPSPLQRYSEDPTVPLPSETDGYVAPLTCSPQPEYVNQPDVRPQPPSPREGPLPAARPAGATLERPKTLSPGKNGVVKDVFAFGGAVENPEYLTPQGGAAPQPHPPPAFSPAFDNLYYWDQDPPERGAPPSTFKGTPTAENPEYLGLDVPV
T1 sequence (P00533 669-1210 limits assumed): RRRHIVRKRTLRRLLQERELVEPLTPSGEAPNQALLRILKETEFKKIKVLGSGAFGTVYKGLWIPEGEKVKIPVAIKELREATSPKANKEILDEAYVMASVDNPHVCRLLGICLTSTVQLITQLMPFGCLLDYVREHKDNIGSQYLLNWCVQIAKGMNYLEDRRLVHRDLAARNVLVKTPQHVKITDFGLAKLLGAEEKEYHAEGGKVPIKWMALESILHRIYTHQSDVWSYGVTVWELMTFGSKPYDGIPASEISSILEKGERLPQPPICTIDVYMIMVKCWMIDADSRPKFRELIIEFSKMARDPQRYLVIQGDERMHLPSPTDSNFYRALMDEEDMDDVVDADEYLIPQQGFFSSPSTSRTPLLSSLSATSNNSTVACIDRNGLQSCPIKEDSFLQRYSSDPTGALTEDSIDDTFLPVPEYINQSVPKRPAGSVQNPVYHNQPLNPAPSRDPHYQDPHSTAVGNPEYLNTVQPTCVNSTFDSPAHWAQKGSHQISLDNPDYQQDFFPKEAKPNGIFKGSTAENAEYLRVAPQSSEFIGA
Chain of VEGF Receptor (KDR) (P35968 20-1356): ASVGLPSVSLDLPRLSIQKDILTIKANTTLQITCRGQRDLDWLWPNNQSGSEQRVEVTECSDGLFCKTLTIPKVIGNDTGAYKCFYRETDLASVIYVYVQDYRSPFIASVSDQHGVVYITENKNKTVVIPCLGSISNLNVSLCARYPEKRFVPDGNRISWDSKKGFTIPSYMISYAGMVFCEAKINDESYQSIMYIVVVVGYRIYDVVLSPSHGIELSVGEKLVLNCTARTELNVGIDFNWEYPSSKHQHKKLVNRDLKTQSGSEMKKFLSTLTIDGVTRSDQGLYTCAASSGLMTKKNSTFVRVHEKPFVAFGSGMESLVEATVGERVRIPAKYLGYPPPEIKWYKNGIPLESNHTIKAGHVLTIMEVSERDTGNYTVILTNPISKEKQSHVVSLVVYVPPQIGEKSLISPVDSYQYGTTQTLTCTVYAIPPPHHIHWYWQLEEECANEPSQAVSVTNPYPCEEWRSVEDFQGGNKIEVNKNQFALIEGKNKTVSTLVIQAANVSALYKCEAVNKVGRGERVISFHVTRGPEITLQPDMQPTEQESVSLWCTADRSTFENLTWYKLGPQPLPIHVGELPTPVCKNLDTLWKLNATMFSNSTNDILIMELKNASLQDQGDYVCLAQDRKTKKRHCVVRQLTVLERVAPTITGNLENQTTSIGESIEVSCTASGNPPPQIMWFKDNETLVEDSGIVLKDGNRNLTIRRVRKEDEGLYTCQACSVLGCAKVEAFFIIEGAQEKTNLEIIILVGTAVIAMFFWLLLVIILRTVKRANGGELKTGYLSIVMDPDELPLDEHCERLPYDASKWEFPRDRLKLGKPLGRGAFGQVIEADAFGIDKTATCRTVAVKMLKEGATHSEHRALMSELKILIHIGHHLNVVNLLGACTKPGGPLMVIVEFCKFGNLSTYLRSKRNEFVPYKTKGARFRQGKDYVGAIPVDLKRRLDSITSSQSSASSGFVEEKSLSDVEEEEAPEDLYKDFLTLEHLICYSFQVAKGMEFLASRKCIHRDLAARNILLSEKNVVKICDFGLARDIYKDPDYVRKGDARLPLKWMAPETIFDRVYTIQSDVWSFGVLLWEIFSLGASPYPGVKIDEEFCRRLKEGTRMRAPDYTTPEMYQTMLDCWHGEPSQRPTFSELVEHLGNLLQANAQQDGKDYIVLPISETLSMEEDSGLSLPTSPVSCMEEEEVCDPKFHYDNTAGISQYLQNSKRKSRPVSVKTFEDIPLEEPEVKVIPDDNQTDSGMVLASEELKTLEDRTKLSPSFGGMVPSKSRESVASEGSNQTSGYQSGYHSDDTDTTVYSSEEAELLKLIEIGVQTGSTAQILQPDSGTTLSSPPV

IC50 (ErbB-2 (HER-2)) [nM]	IC50 (VEGF Receptor (KDR)) [nM]	IC50 (EGF-R (HER-1)) [nM]	melting point [°C]	SMILES
45	19	2.5		Cc1cccc(CNc2ncnc3[nH]c(-c4ccc(CN(C)C)cc4)cc23)c1 [107f^]
8	10.7	3.1	266 to 268	CCN1CCN(Cc2ccc(-c3cc4c(Nc5ccc(F)c(Cl)c5)ncnc4[nH]3)cc2)CC1 [Example 3, (3-Chloro-4-fluoro-phenyl)-{6-[4-(4-ethyl-piperazin-1-ylmethyl)-phenyl]-7H-pyrrolo[2,3-d]pyrimidin-4-yl}-amine]
7.2	9.3	3.1	268 to 270	Fc1ccc(Nc2ncnc3[nH]c(-c4ccc(CN5CCCC5)cc4)cc23)cc1Cl [Example 4, (3-Chloro-4-fluoro-phenyl)-[6-(4-pyrrolidin-1-ylmethyl-phenyl)-7H-pyrrolo[2,3-d]pyrimidin-4-yl]-amine]
6.7	6	3.1	264 to 266	CN1CCN(Cc2ccc(-c3cc4c(Nc5ccc(F)c(Cl)c5)ncnc4[nH]3)cc2)CC1 [Example 5, (3-Chloro-4-fluoro-phenyl)-{6-[4-(4-methyl-piperazin-1-ylmethyl)-phenyl]-7H-pyrrolo[2,3-d]pyrimidin-4-yl}-amine]
5	12.7	7	267 to 269	Fc1ccc(Nc2ncnc3[nH]c(-c4ccc(CN5CCCCC5)cc4)cc23)cc1Cl [Example 6, (3-Chloro-4-fluoro-phenyl)-[6-(4-piperidin-1-ylmethyl-phenyl)-7H-pyrrolo[2,3-d]pyrimidin-4-yl]-amine]
11	58	4	298 to 300	Fc1ccc(Nc2ncnc3[nH]c(-c4ccc(CN5CCOCC5)cc4)cc23)cc1Cl [Example 7, (3-Chloro-4-fluoro-phenyl)-[6-(4-morpholin-4-ylmethyl-phenyl)-7H-pyrrolo[2,3-d]pyrimidin-4-yl]-amine]
9.4	17	2.4	288 to 290	Fc1ccc(Nc2ncnc3[nH]c(-c4ccc(CNC5CCOCC5)cc4)cc23)cc1Cl [Example 8a, (3-Chloro-4-fluoro-phenyl)-(6-{4-[(tetrahydro-pyran-4-ylamino)-methyl]-phenyl}-7H-pyrrolo[2,3-d]pyrimidin-4-yl)-amine]
9	29.3		246 to 248	CCN(CC)Cc1ccc(-c2cc3c(N[C@H](C)c4ccccc4)ncnc3[nH]2)cc1 [Example 10, [6-(4-Diethylamino-methyl-phenyl)-7H-pyrrolo[2,3-d]pyrimidin-4-yl]-((R)-1-phenyl-ethyl)-amine]
5	49.7			CCN1CCN(Cc2ccc(-c3cc4c(N[C@H](C)c5ccccc5)ncnc4[nH]3)cc2)CC1 [Example 11, {6-[4-(4-Ethyl-piperazin-1-ylmethyl)-phenyl]-7H-pyrrolo[2,3-d]pyrimidin-4-yl}-((R)-1-phenyl-ethyl)-amine]
5	139	4.7	254 to 256	C[C@@H](Nc1ncnc2[nH]c(-c3ccc(CN4CCCC4)cc3)cc12)c1ccccc1 [Example 12, ((R)-1-Phenyl-ethyl)-[6-(4-pyrrolidin-1-ylmethyl-phenyl)-7H-pyrrolo[2,3-d]pyrimidin-4-yl]-amine]
5	88	6		C[C@@H](Nc1ncnc2[nH]c(-c3ccc(CN(C)C)cc3)cc12)c1ccccc1 [Example 13, [6-(4-Dimethylamino-methyl-phenyl)-7H-pyrrolo[2,3-d]pyrimidin-4-yl]-((R)-1-phenyl-ethyl)-amine]
8.5	92.7	6.3	246 to 248	C[C@@H](Nc1ncnc2[nH]c(-c3ccc(CN4CCCCC4)cc3)cc12)c1ccccc1 [Example 14, ((R)-1-Phenyl-ethyl)-[6-(4-piperidin-1-ylmethyl-phenyl)-7H-pyrrolo[2,3-d]pyrimidin-4-yl]-amine]
6.5	49.3	5	263 to 265	C[C@@H](Nc1ncnc2[nH]c(-c3ccc(CN4CCOCC4)cc3)cc12)c1ccccc1 [Example 15, [6-(4-Morpholin-4-ylmethyl-phenyl)-7H-pyrrolo[2,3-d]pyrimidin-4-yl]-((R)-1-phenyl-ethyl)-amine]
16	61	1.2	222 to 224	C[C@@H](Nc1ncnc2[nH]c(-c3ccc(CNCCN4CCOCC4)cc3)cc12)c1ccccc1 [Example 16a, (6-{4-[(2-Morpholin-4-yl-ethylamino)-methyl]-phenyl}-7H-pyrrolo[2,3-d]pyrimidin-4-yl)-((R)-1-phenyl-ethyl)-amine]
31.5	24.5	16.5	256 to 258	CN1CCN(Cc2ccc(-c3cc4c(Nc5ccc(OCc6ccccc6)cc5)ncnc4[nH]3)cc2)CC1 [Example 18, (4-Benzyloxy-phenyl)-{6-[4-(4-methyl-piperazin-1-ylmethyl)-phenyl]-7H-pyrrolo[2,3-d]pyrimidin-4-yl}-amine]
11.5	51.5	5	150 to 152	C[C@@H](Nc1ncnc2[nH]c(-c3ccc(CNC(=O)CN4CCN(C)CC4)cc3)cc12)c1ccccc1 [Example 43, 2-(4-Methyl-piperazin-1-yl)-N-{4-[4-((R)-1-phenyl-ethylamino)-7H-pyrrolo[2,3-d]pyrimidin-6-yl]-benzyl}-acetamide]
7.5	58	5.7	272 to 275	O=C(CN1CCOCC1)NCc1ccc(-c2cc3c(Nc4ccc(F)c(Cl)c4)ncnc3[nH]2)cc1 [Example 48, N-{4-[4-(3-Chloro-4-fluoro-phenylamino)-7H-pyrrolo[2,3-d]pyrimidin-6-yl]-benzyl}-2-morpholin-4-yl-acetamide]
14	125	15.7	232 to 234	CN1CCN(CC(=O)NCc2ccc(-c3cc4c(Nc5ccc(OCc6ccccc6)cc5)ncnc4[nH]3)cc2)CC1 [Example 52, N-{4-[4-(4-Benzyloxy-phenylamino)-7H-pyrrolo[2,3-d]pyrimidin-6-yl]-benzyl}-2-(4-methyl-piperazin-1-yl)-acetamide]
16	105	5.5	253 to 254.5	Clc1cccc(CNc2ncnc3[nH]c(-c4ccc(CN5CCOCC5)cc4)cc23)c1 [Example 86, (3-Chloro-benzyl)-[6-(4-morpholin-4-ylmethyl-phenyl)-7H-pyrrolo[2,3-d]pyrimidin-4-yl]-amine]
16	42	1.8	267 to 269	CN1CCN(Cc2ccc(-c3cc4c(NCc5ccccc5Cl)ncnc4[nH]3)cc2)CC1 [Example 94, (2-Chloro-benzyl)-{6-[4-(4-methyl-piperazin-1-ylmethyl)-phenyl]-7H-pyrrolo[2,3-d]pyrimidin-4-yl}-amine]
15.5	15.5	39		CN(C)Cc1ccc(-c2cc3c(Nc4ccc(=O)[nH]c4)ncnc3[nH]2)cc1 [Example 116, 5-[6-(4-Dimethylaminomethyl-phenyl)-7H-pyrrolo[2,3-d]pyrimidin-4-ylamino]-1H-pyridin-2-one]
			211 to 212	COc1cc(CNc2ncnc3[nH]c(-c4ccc(CN5CCN(C)CC5)cc4)cc23)ccn1 [Example 125, (2-Methoxy-pyridin-4-ylmethyl)-{6-[4-(4-methyl-piperazin-1-ylmethyl)-phenyl]-7H-pyrrolo[2,3-d]pyrimidin-4-yl}-amine]
			291 to 292	CCN1CCN(Cc2ccc(-c3cc4c(NCc5cc[nH]c(=O)c5)ncnc4[nH]3)cc2)CC1 [Example 129, 4-({6-[4-(4-Ethyl-piperazin-1-ylmethyl)-phenyl]-7H-pyrrolo[2,3-d]pyrimidin-4-ylamino}-methyl)-1H-pyridin-2-one]
			280 to 282	Cc1cc2c(F)c(Oc3ncnc4[nH]c(-c5ccc(CN6CCOCC6)cc5)cc34)ccc2[nH]1 [Example 143, 4-(4-Fluoro-2-methyl-1H-indol-5-yloxy)-6-(4-morpholin-4-ylmethyl-phenyl)-7H-pyrrolo[2,3-d]pyrimidine]
			240 to 242	C[C@@H](Nc1ncnc2[nH]c(-c3ccc(CN4CCNCC4)cc3)cc12)c1ccccc1 [Example 145, ((R)-1-Phenyl-ethyl)-[6-(4-piperazin-1-ylmethyl-phenyl)-7H-pyrrolo[2,3-d]pyrimidin-4-yl]-amine]
